# Counter-ions that a name gives are not always drawn.
# Tests used:
# DIO C57Bl6 mice = experiment: Efficacy of various compounds in DIO mouse model (body weight versus time); type: in vivo; conditions: 2 mg/kg q4d sc; for BW change vs. vehicle: day 26
# Description: On study day 1 animals were randomized into groups so that the average weight of the mice in each group was 47 g. The mice were treated with either phosphate buffered saline (vehicle), or compounds as listed in Table 19 dissolved in vehicle (dorsal, subcutaneous administration).
melting point [°C],Molecule,"Group Avg. BW, Study Day 1 (DIO C57Bl6 mice) [g]","Group Avg. BW, Study Day 7 (DIO C57Bl6 mice) [g]","Group Avg. BW, Study Day 15 (DIO C57Bl6 mice) [g]","Group Avg. BW, Study Day 21 (DIO C57Bl6 mice) [g]","Group Avg. BW, Study Day 26 (DIO C57Bl6 mice) [g]",BW change vs. vehicle (DIO C57Bl6 mice) [%]
180 to 185,"COC1C(OC(=O)N[C@H]2CC[C@H](N)CC2)CC[C@]2(CO2)C1[C@@]1(C)O[C@@H]1CC=C(C)C (stereo partly drawn) (as salt: tartrate) [Compound 1, Fumagill-6-yl [trans-(4-aminocyclohexyl)]carbamate]",–,–,–,–,–,–
–,poly[HPMA-co-MA-GFLG-NH-2-[(2-(2-aminoethoxy)ethoxy)ethyl]carbamoylfumagillol] [Compound bb],47.0,43.6,43.9,42.2,42.5,−7.8
–,poly[HPMA-co-MA-GFLG-N-(cis-4-aminocyclohexyl)carbamoylfumagillol] [Compound cis-16],47.0,42.7,42.6,40.9,40.6,−12.0
